The record followed here is article PMC5218480 (PLoS ONE, 2017).

This assay concerns MV-4-11 cells. As to the kind of experiment: Gene expression microarray analysis (Affymetrix PrimeView) and GSEA. In kind it is cell-based, human. Further details: RFU PODN (11730768_x_at) / Fold change /veh PODN (11730768_x_at) / RFU LINC00158 (11744669_a_at) / Fold change /veh LINC00158 (11744669_a_at) / RFU DUSP10 (11751237_a_at) / Fold change /veh DUSP10 (11751237_a_at) / RFU ID3 (11757404_x_at) / Fold change /veh ID3 (11757404_x_at) / RFU PLEKHG5 (11737974_s_at) / Fold change /veh PLEKHG5 (11737974_s_at) / RFU LRRC4B (11730491_at) / Fold change /veh LRRC4B (11730491_at) / RFU GIMAP4 (11747438_a_at) / Fold change /veh GIMAP4 (11747438_a_at) / RFU KRT8 (11758183_x_at) / Fold change /veh KRT8 (11758183_x_at) / RFU CNN1 (11734310_a_at) / Fold change /veh CNN1 (11734310_a_at) / RFU VPS37D (11726825_at) / Fold change /veh VPS37D (11726825_at) / RFU C10orf10 (11716522_x_at) / Fold change /veh C10orf10 (11716522_x_at) / RFU KIR2DL2 /// KIR2DL4 /// KIR2DL5A /// KIR2DL5B /// KIR2DS1 /// KIR2DS2 /// KIR2DS3 /// KIR2DS4 /// KIR3DL3 /// KIR3DL3 /// KIR3DS1 (11738374_at) / Fold change /veh KIR2DL2 /// KIR2DL4 /// KIR2DL5A /// KIR2DL5B /// KIR2DS1 /// KIR2DS2 /// KIR2DS3 /// KIR2DS4 /// KIR3DL3 /// KIR3DL3 /// KIR3DS1 (11738374_at) / RFU C1QL1 (11718748_at) / Fold change /veh C1QL1 (11718748_at) / RFU TMPRSS4 (11747572_a_at) / Fold change /veh TMPRSS4 (11747572_a_at) / RFU HAMP (11756126_x_at) / Fold change /veh HAMP (11756126_x_at) / RFU RNFT2 (11725882_a_at) / Fold change /veh RNFT2 (11725882_a_at) / RFU NR4A2 (11747474_a_at) / Fold change /veh NR4A2 (11747474_a_at) / RFU ABCC12 (11746883_a_at) / Fold change /veh ABCC12 (11746883_a_at) / RFU TMEM136 (11760407_x_at) / Fold change /veh TMEM136 (11760407_x_at) / RFU CLDN22 /// WWC2 (11732394_at) / Fold change /veh CLDN22 /// WWC2 (11732394_at) / RFU HLA-DPB1 (11760878_x_at) / Fold change /veh HLA-DPB1 (11760878_x_at) / RFU SPINT1 (11716480_a_at) / Fold change /veh SPINT1 (11716480_a_at) / RFU GAP43 (11754022_s_at) / Fold change /veh GAP43 (11754022_s_at) / RFU A4GNT (11735810_at) / Fold change /veh A4GNT (11735810_at) / RFU PRB3 (11715151_x_at) / Fold change /veh PRB3 (11715151_x_at) / RFU TUBB4B (11761932_at) / Fold change /veh TUBB4B (11761932_at) / RFU CAPN14 (11732068_a_at) / Fold change /veh CAPN14 (11732068_a_at) / RFU TMCC2 (11721928_a_at) / Fold change /veh TMCC2 (11721928_a_at) / RFU IRGQ (11745062_a_at) / Fold change /veh IRGQ (11745062_a_at) / RFU FAM174B (11720279_a_at) / Fold change /veh FAM174B (11720279_a_at) / RFU TMPRSS4 (11748680_a_at) / Fold change /veh TMPRSS4 (11748680_a_at) / RFU FAM212B (11763350_a_at) / Fold change /veh FAM212B (11763350_a_at) / RFU PLEKHG5 (11743358_a_at) / Fold change /veh PLEKHG5 (11743358_a_at) / RFU ZSCAN30 (11745921_a_at) / Fold change /veh ZSCAN30 (11745921_a_at) / RFU CMKLR1 (11741424_a_at) / Fold change /veh CMKLR1 (11741424_a_at) / RFU LOC101060620 /// MAPK8IP1 (11723275_at) / Fold change /veh LOC101060620 /// MAPK8IP1 (11723275_at) / RFU SPTSSB (11747773_x_at) / Fold change /veh SPTSSB (11747773_x_at) / RFU PRSS12 (11739890_at) / Fold change /veh PRSS12 (11739890_at) / RFU BIN1 (11741810_x_at) / Fold change /veh BIN1 (11741810_x_at) / RFU WNT11 (11732464_a_at) / Fold change /veh WNT11 (11732464_a_at) / RFU C10orf10 (11716521_a_at) / Fold change /veh C10orf10 (11716521_a_at) / RFU C5orf56 (11738089_at) / Fold change /veh C5orf56 (11738089_at) / RFU CYB561 (11721691_x_at) / Fold change /veh CYB561 (11721691_x_at) / RFU ANKRD19P (11752326_a_at) / Fold change /veh ANKRD19P (11752326_a_at) / RFU OR2T12 /// OR2T33 /// OR2T8 (11738714_s_at) / Fold change /veh OR2T12 /// OR2T33 /// OR2T8 (11738714_s_at) / RFU VCAN (11748164_a_at) / Fold change /veh VCAN (11748164_a_at) / RFU JSRP1 (11732532_at) / Fold change /veh JSRP1 (11732532_at) / RFU KRTAP10-11 (11738290_x_at) / Fold change /veh KRTAP10-11 (11738290_x_at) / RFU MYO3A (11730013_a_at) / Fold change /veh MYO3A (11730013_a_at) / RFU EBF3 (11725865_a_at) / Fold change /veh EBF3 (11725865_a_at) / RFU CAMK2N1 (11719241_x_at) / Fold change /veh CAMK2N1 (11719241_x_at) / RFU C5orf56 (11738088_a_at) / Fold change /veh C5orf56 (11738088_a_at) / RFU OLFML3 (11715873_a_at) / Fold change /veh OLFML3 (11715873_a_at) / RFU LOC100653217 /// NTM (11731650_a_at) / Fold change /veh LOC100653217 /// NTM (11731650_a_at) / RFU MAPK11 (11762145_a_at) / Fold change /veh MAPK11 (11762145_a_at) / RFU FIZ1 (11724087_x_at) / Fold change /veh FIZ1 (11724087_x_at) / RFU OASL (11726364_x_at) / Fold change /veh OASL (11726364_x_at) / RFU SOX15 (11748057_x_at) / Fold change /veh SOX15 (11748057_x_at) / RFU CD79A (11719716_a_at) / Fold change /veh CD79A (11719716_a_at) / RFU HIST1H1D (11736915_at) / Fold change /veh HIST1H1D (11736915_at) / RFU CASKIN2 (11723855_a_at) / Fold change /veh CASKIN2 (11723855_a_at) / RFU LOC730098 (11760151_x_at) / Fold change /veh LOC730098 (11760151_x_at) / RFU OR4N2 (11742367_at) / Fold change /veh OR4N2 (11742367_at) / RFU PRRT2 (11749266_a_at) / Fold change /veh PRRT2 (11749266_a_at) / RFU SNX32 (11753110_a_at) / Fold change /veh SNX32 (11753110_a_at) / RFU CDHR5 (11726645_a_at) / Fold change /veh CDHR5 (11726645_a_at) / RFU RCAN1 (11760418_a_at) / Fold change /veh RCAN1 (11760418_a_at) / RFU FAM167A (11723789_a_at) / Fold change /veh FAM167A (11723789_a_at) / RFU FAM26E (11764081_at) / Fold change /veh FAM26E (11764081_at) / RFU ISYNA1 (11749810_s_at) / Fold change /veh ISYNA1 (11749810_s_at) / RFU ACY1 (11761880_at) / Fold change /veh ACY1 (11761880_at) / RFU 11764098_at / Fold change /veh 11764098_at / RFU SAMD14 (11745864_x_at) / Fold change /veh SAMD14 (11745864_x_at) / RFU NPB (11741838_a_at) / Fold change /veh NPB (11741838_a_at) / RFU TMPRSS6 (11731388_a_at) / Fold change /veh TMPRSS6 (11731388_a_at) / RFU KRTAP10-2 (11738614_at) / Fold change /veh KRTAP10-2 (11738614_at) / RFU ARHGAP8 /// PRR5-ARHGAP8 (11727945_x_at) / Fold change /veh ARHGAP8 /// PRR5-ARHGAP8 (11727945_x_at) / RFU KRTAP5-7 /// NADSYN1 (11734609_at) / Fold change /veh KRTAP5-7 /// NADSYN1 (11734609_at) / RFU RASL12 (11751679_a_at) / Fold change /veh RASL12 (11751679_a_at) / RFU CDKN2B (11736163_a_at) / Fold change /veh CDKN2B (11736163_a_at) / RFU PRF1 (11729649_at) / Fold change /veh PRF1 (11729649_at) / RFU, ZNF638 /// ZNF638-IT1 / Fold change vs veh, ZNF638 /// ZNF638-IT1 / RFU, PANK3 / Fold change vs veh, PANK3 / RFU, SH3YL1 / Fold change vs veh, SH3YL1 / RFU, ZEB2 / Fold change vs veh, ZEB2 / RFU, NRIP1 / Fold change vs veh, NRIP1 / RFU, PTTG1IP / Fold change vs veh, PTTG1IP / RFU, CAPN2 / Fold change vs veh, CAPN2 / RFU, MED14 / Fold change vs veh, MED14 / RFU, SNORA58 / Fold change vs veh, SNORA58 / RFU, C1orf63 / Fold change vs veh, C1orf63 / RFU, LRRFIP1 / Fold change vs veh, LRRFIP1 / RFU, NDUFAF7 / Fold change vs veh, NDUFAF7 / RFU, SLC12A2 / Fold change vs veh, SLC12A2 / RFU, IBTK / Fold change vs veh, IBTK / RFU, ESF1 / Fold change vs veh, ESF1 / Fold change vs veh, TMEM50B / RFU, TAOK1 / Fold change vs veh, TAOK1 / RFU, ACBD3 / Fold change vs veh, ACBD3 / RFU, TMA16 / Fold change vs veh, TMA16 / RFU, RWDD3 / Fold change vs veh, RWDD3 / RFU, BCAT1 / Fold change vs veh, BCAT1 / RFU, EDEM3 / Fold change vs veh, EDEM3 / RFU, TMEM33 / Fold change vs veh, TMEM33 / RFU, WDR75 / Fold change vs veh, WDR75 / RFU, AHCTF1 / Fold change vs veh, AHCTF1 / RFU, TFRC / Fold change vs veh, TFRC / RFU, ZDHHC17 / Fold change vs veh, ZDHHC17 / RFU, NOM1 / Fold change vs veh, NOM1 / RFU, ARL8B / Fold change vs veh, ARL8B / RFU, ZBTB11 / Fold change vs veh, ZBTB11 / RFU, TAMM41 / Fold change vs veh, TAMM41 / RFU, KIAA1704 /// LOC100996395 / Fold change vs veh, KIAA1704 /// LOC100996395 / RFU, ING1 / Fold change vs veh, ING1 / RFU, TRMT61B / Fold change vs veh, TRMT61B / RFU, FUBP3 / Fold change vs veh, FUBP3 / RFU, TP53 / Fold change vs veh, TP53 / RFU, TNKS2 / Fold change vs veh, TNKS2 / RFU, ZFP14 / Fold change vs veh, ZFP14 / RFU, ACTR2 / Fold change vs veh, ACTR2 / RFU, PPP3R1 / Fold change vs veh, PPP3R1 / RFU, PIK3R1 / Fold change vs veh, PIK3R1 / RFU, HNRNPA1 / Fold change vs veh, HNRNPA1 / RFU, RNF170 / Fold change vs veh, RNF170 / RFU, ZNF28 / Fold change vs veh, ZNF28 / RFU, RNGTT / Fold change vs veh, RNGTT / RFU, OGT / Fold change vs veh, OGT / RFU, BRD1 / Fold change vs veh, BRD1 / RFU, MARS / Fold change vs veh, MARS / RFU, ZNF655 / Fold change vs veh, ZNF655 / RFU, FAHD1 / Fold change vs veh, FAHD1 / RFU, BDP1 / Fold change vs veh, BDP1 / RFU, LRRCC1 / Fold change vs veh, LRRCC1 / RFU, ARID1A / Fold change vs veh, ARID1A / RFU, ZNF146 / Fold change vs veh, ZNF146 / RFU, ZNF330 / Fold change vs veh, ZNF330 / RFU, GPN3 / Fold change vs veh, GPN3 / RFU, C9orf123 / Fold change vs veh, C9orf123 / RFU, N4BP2L2 / Fold change vs veh, N4BP2L2 / RFU, ARFIP1 / Fold change vs veh, ARFIP1 / RFU, FAM179B / Fold change vs veh, FAM179B / RFU, BCL10 / Fold change vs veh, BCL10 / RFU, UHRF1BP1L / Fold change vs veh, UHRF1BP1L / RFU, BET1 / Fold change vs veh, BET1 / RFU, CNOT2 / Fold change vs veh, CNOT2 / RFU, ZNF268 / Fold change vs veh, ZNF268 / Fold change vs veh, ZNF507 / RFU, DGCR2 / Fold change vs veh, DGCR2 / RFU, WDSUB1 / Fold change vs veh, WDSUB1 / Fold change vs veh, HSP90B1 /// MIR3652 / RFU, ADSS / Fold change vs veh, ADSS / RFU, GK / Fold change vs veh, GK / RFU, ZNF148 / Fold change vs veh, ZNF148 / RFU, TAF9 / Fold change vs veh, TAF9 / RFU, SLC1A5 / Fold change vs veh, SLC1A5 / RFU, SLMO2 / Fold change vs veh, SLMO2 / RFU, ABCC4 / Fold change vs veh, ABCC4 / RFU, LOC101060439 /// RAP1B / Fold change vs veh, LOC101060439 /// RAP1B / RFU, RFX7 / Fold change vs veh, RFX7 / RFU, GTPBP10 / Fold change vs veh, GTPBP10 / RFU, CNEP1R1 / Fold change vs veh, CNEP1R1 / RFU, BIVM-ERCC5 /// ERCC5 / Fold change vs veh, BIVM-ERCC5 /// ERCC5 / RFU, ILF3 / Fold change vs veh, ILF3 / RFU 11762660_at / Fold change /veh 11762660_at / RFU VCAN (11757783_s_at) / Fold change /veh VCAN (11757783_s_at) / RFU DDX43 (11728927_at) / Fold change /veh DDX43 (11728927_at) / RFU KRT8 (11758188_x_at) / Fold change /veh KRT8 (11758188_x_at) / RFU NKD1 (11759106_at) / Fold change /veh NKD1 (11759106_at) / RFU SRD5A1 (11742802_a_at) / Fold change /veh SRD5A1 (11742802_a_at) / RFU TPSAB1 /// TPSB2 (11721975_s_at) / Fold change /veh TPSAB1 /// TPSB2 (11721975_s_at) / RFU GSTM3 (11746129_a_at) / Fold change /veh GSTM3 (11746129_a_at) / RFU IL23R (11737362_x_at) / Fold change /veh IL23R (11737362_x_at) / RFU TMEM51 (11727254_a_at) / Fold change /veh TMEM51 (11727254_a_at) / RFU PIWIL2 (11732686_x_at) / Fold change /veh PIWIL2 (11732686_x_at) / RFU ORM1 (11744905_x_at) / Fold change /veh ORM1 (11744905_x_at) / RFU CCDC152 (11743942_at) / Fold change /veh CCDC152 (11743942_at) / RFU ECM1 (11717891_a_at) / Fold change /veh ECM1 (11717891_a_at) / RFU IL23R (11748794_a_at) / Fold change /veh IL23R (11748794_a_at) / RFU TNFAIP8L3 (11732012_x_at) / Fold change /veh TNFAIP8L3 (11732012_x_at) / RFU MBOAT4 (11741988_at) / Fold change /veh MBOAT4 (11741988_at) / RFU 11764193_at / Fold change /veh 11764193_at / RFU TMEM53 (11763286_at) / Fold change /veh TMEM53 (11763286_at) / RFU MAGEB2 (11727129_at) / Fold change /veh MAGEB2 (11727129_at) / RFU TMEM200A (11744735_a_at) / Fold change /veh TMEM200A (11744735_a_at) / RFU CCDC152 (11751479_a_at) / Fold change /veh CCDC152 (11751479_a_at) / RFU FAM211A (11726209_a_at) / Fold change /veh FAM211A (11726209_a_at) / RFU RGS16 (11746705_a_at) / Fold change /veh RGS16 (11746705_a_at) / RFU VCAN (11755009_s_at) / Fold change /veh VCAN (11755009_s_at) / RFU RHOB (11743442_s_at) / Fold change /veh RHOB (11743442_s_at) / RFU RGS16 (11720943_a_at) / Fold change /veh RGS16 (11720943_a_at) / RFU RGS16 (11720944_at) / Fold change /veh RGS16 (11720944_at) / RFU, VPS4B / Fold change vs veh, VPS4B / RFU, CREB1 / Fold change vs veh, CREB1 / RFU, DNAJC13 / Fold change vs veh, DNAJC13 / RFU, GNAQ / Fold change vs veh, GNAQ / RFU, CDK5R1 / Fold change vs veh, CDK5R1 / RFU, ZRANB3 / Fold change vs veh, ZRANB3 / RFU, CUL4A / Fold change vs veh, CUL4A / RFU, CCNY / Fold change vs veh, CCNY / RFU, UFL1 / Fold change vs veh, UFL1 / RFU, COG3 / Fold change vs veh, COG3 / RFU, DIAPH2 / Fold change vs veh, DIAPH2 / RFU, SKA2 / Fold change vs veh, SKA2 / RFU, AFF3 / Fold change vs veh, AFF3 / RFU, LMF1 / Fold change vs veh, LMF1 / RFU, IPO11 / Fold change vs veh, IPO11 / RFU, DFFB / Fold change vs veh, DFFB / RFU, FOXP1 / Fold change vs veh, FOXP1 / RFU, CARD8 / Fold change vs veh, CARD8 / RFU, STRN3 / Fold change vs veh, STRN3 / RFU, ADK / Fold change vs veh, ADK / RFU, RASSF2 / Fold change vs veh, RASSF2 / RFU, WIPF1 / Fold change vs veh, WIPF1 / RFU, LARP1B / Fold change vs veh, LARP1B / RFU, RASA1 / Fold change vs veh, RASA1 / RFU, RB1 / Fold change vs veh, RB1 / RFU, PPFIA1 / Fold change vs veh, PPFIA1 / RFU, MAT2A / Fold change vs veh, MAT2A / RFU, CCT5 / Fold change vs veh, CCT5 / RFU, WDR92 / Fold change vs veh, WDR92 / RFU, CUX1 / Fold change vs veh, CUX1 / RFU, TTC7A / Fold change vs veh, TTC7A / RFU, TMEM135 / Fold change vs veh, TMEM135 / RFU, DEPTOR / Fold change vs veh, DEPTOR / RFU, CPM / Fold change vs veh, CPM / RFU, DNAJB6 / Fold change vs veh, DNAJB6 / RFU, CACNA2D3 / Fold change vs veh, CACNA2D3 / RFU, DTX4 / Fold change vs veh, DTX4 / RFU, TFCP2 / Fold change vs veh, TFCP2 / RFU, GMCL1 /// GMCL1P1 / Fold change vs veh, GMCL1 /// GMCL1P1 / RFU, AEBP2 / Fold change vs veh, AEBP2 / RFU, SNHG1 /// SNORD22 /// SNORD25 /// SNORD26 /// SNORD27 /// SNORD28 /// SNORD29 /// SNORD31 / Fold change vs veh, SNHG1 /// SNORD22 /// SNORD25 /// SNORD26 /// SNORD27 /// SNORD28 /// SNORD29 /// SNORD31 / Fold change (Aza/veh), C12orf56 (ProbeSet 11735607_a_at) / Fold change (ACY-1035/veh), C12orf56 (ProbeSet 11735607_a_at) / Fold change (Aza/veh), FGFR1OP (ProbeSet 11751329_s_at) / Fold change (ACY-1035/veh), FGFR1OP (ProbeSet 11751329_s_at) / Fold change (Aza/veh), VPS36 (ProbeSet 11739960_a_at) / Fold change (ACY-1035/veh), VPS36 (ProbeSet 11739960_a_at) / RFU SYPL1 (11715823_x_at) / Fold change /veh SYPL1 (11715823_x_at) / RFU IGFBP7 (11715501_s_at) / Fold change /veh IGFBP7 (11715501_s_at) / RFU REEP3 (11722064_at) / Fold change /veh REEP3 (11722064_at) / RFU IGLL1 (11728026_x_at) / Fold change /veh IGLL1 (11728026_x_at): dose or concentration left out as unconfirmed. The conditions noted are these: ProbeSet 11741123_x_at; LIST D.

In the case of `Nc1ncn([C@@H]2O[C@H](CO)[C@@H](O)[C@H]2O)c(=O)n1` [azacitidine], the “Fold change vs veh, ADK” value came out at 0.72.
